Results from the supplement of paper PMC10307832.

Experiments:
Experiment in all cases: relative viability (nuclei count vs DMSO), 5 days (fraction); higher = more cells survive
[1] = compound: C=CC(=O)N1CCC[C@@H](n2nc(-c3ccc(Oc4ccccc4)cc3)c3c(N)ncnc32)C1 [Ibrutinib] + CC(=O)Nc1cccc(-n2c(=O)n(C3CC3)c(=O)c3c(Nc4ccc(I)cc4F)n(C)c(=O)c(C)c32)c1 [Trametinib] (partner 0.02 µM)
In short: (§1)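 Lung cancer cell lines in 1536-well plates were dosed by pin tool the day after seeding, either with one drug alone or with a fixed anchor-drug dose plus five library-drug doses (not always all listed) in √10 steps. After 5 days, cells were fixed and their nuclei stained in one step (final 0.05% Triton X-100, 1% formaldehyde, 1 ug/ml Hoechst), then counted on 4× images. Relative viability is the nuclei count in treated wells divided by that in vehicle wells. Values are medians of duplicate plates.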

[2] = compound: C=CC(=O)N1CCC[C@@H](n2nc(-c3ccc(Oc4ccccc4)cc3)c3c(N)ncnc32)C1 [Ibrutinib] + C[C@@H](Oc1cc(-c2cnn(C3CCNCC3)c2)cnc1N)c1c(Cl)ccc(F)c1Cl [Crizotinib] (partner 1 µM)
In short: as §1

[3] = compound: C=CC(=O)Nc1cc(-n2c(=O)ccc3cnc4ccc(-c5ccc(NS(C)(=O)=O)cc5)cc4c32)ccc1C [BMX-IN-1] + Nc1ncn([C@H]2C[C@H](O)[C@@H](CO)O2)c(=O)n1 [Decitabine] (partner 2 µM)
In short: as §1

[4] = compound: C=CC(=O)Nc1cc(-n2c(=O)ccc3cnc4ccc(-c5ccc(NS(C)(=O)=O)cc5)cc4c32)ccc1C [BMX-IN-1] + C[C@@H](Oc1cc(-c2cnn(C3CCNCC3)c2)cnc1N)c1c(Cl)ccc(F)c1Cl [Crizotinib] (partner 1 µM)
In short: as §1

Cell Line	relative viability ([1]; first compound 0.005 µM)	relative viability ([1]; first compound 0.01581 µM)	relative viability ([1]; first compound 0.05 µM)	relative viability ([1]; first compound 0.1581 µM)	relative viability ([1]; first compound 0.5 µM)	relative viability ([2]; first compound 0.005 µM)	relative viability ([2]; first compound 0.01581 µM)	relative viability ([2]; first compound 0.05 µM)	relative viability ([2]; first compound 0.1581 µM)	relative viability ([2]; first compound 0.5 µM)	relative viability ([3]; first compound 0.02 µM)	relative viability ([3]; first compound 0.2 µM)	relative viability ([3]; first compound 0.6325 µM)	relative viability ([3]; first compound 2 µM)	relative viability ([4]; first compound 0.02 µM)	relative viability ([4]; first compound 0.2 µM)	relative viability ([4]; first compound 0.6325 µM)	relative viability ([4]; first compound 2 µM)
PC-3 [JPC-3]	0.617	0.592	0.617	0.754	0.456	0.988	0.907	0.975	0.987	0.6	0.84	0.754	0.816	0.885	1.34	1.03	1.03	0.99
PC-14	0.735	0.647	0.643	0.818	0.254	0.886	0.968	0.896	0.901	0.563	0.18	0.227	0.292	0.305	0.909	1.07	0.964	0.987
RERF-LC-KJ	0.956	0.815	1.09	0.822	0.742	0.865	0.742	0.825	0.889	0.815	0.788	0.692	0.851	0.758	0.813	1.09	0.865	0.807
SK-LU-1	0.393	0.501	0.472	0.536	0.454	0.869	0.741	1.04	1.1	0.859	0.789	0.679	0.834	0.679	1.02	0.906	0.868	0.904
SW 1573		0.462	0.618	0.547	0.661	0.87	0.807	0.803	0.986	0.77	0.575	0.532	0.46	0.459	0.869	0.97	0.879	0.767
UMC-11	0.445	0.698	0.772	0.667	0.516	0.538	0.598	0.596	0.681	0.57	0.604	0.526	0.66	0.664	0.821	0.579	0.633	0.578
